Measured values published in ChEMBL document CHEMBL5537159, “Discovery and SAR of JTE-151: A Novel RORγ Inhibitor for Clinical Development” (J Med Chem, 2024).

Columns and labels:
D(1A) dopamine receptor = D(1A) dopamine receptor (Homo sapiens, UniProt P21728); experiment: Inhibition of human dopamine D1 receptor
[1] = target: Beta-1 adrenergic receptor (Homo sapiens, UniProt P08588); experiment: Inhibition of human adrenergic beta1 receptor
[2] = Cmax in human at 600 […], po administered as single dose and measured upto 144 hrs; format: ADME, organism-based; details: in vivo
[3] = Selectivity ratio of agonist activity at human PPARdelta to inhibition of RORgamma (unknown origin)
[4] = AUCinfinity in C57BL/6J mouse at 3 mg/kg, po administered as single dose and measured after 24 hrs; format: ADME, organism-based; details: in vivo
[5] = Toxicity in Beagle dog assessed as development-limiting toxicity at 100 mg/kg, po bid administered 2 doses at 4 hrs interval and measured on day 1,14 and 28; format: organism-based, Canis lupus familiaris; details: in vivo, 672 h, time 28 day
[6] = AUClast in human at 60 mg/kg, po administered as single dose and measured upto 144 hrs; format: ADME, organism-based; details: in vivo
Cytochrome P450 2C8 = Cytochrome P450 2C8 (Homo sapiens, UniProt P10632); experiment: Inhibition of CYP2C8 in human liver microsomes; format: ADME, Microsome
[7] = Volume of distribution at steady state in Beagle dog at 1 mg/kg, iv administered as single dose and measured after 24 hrs; format: ADME, organism-based, Canis lupus familiaris; details: in vivo, read-out: Vdss
[8] = Inhibition of human nicotinic receptor
[9] = Volume of distribution at steady state in C57BL/6J mouse at 1 mg/kg, iv administered as single dose and measured after 24 hrs; format: ADME, organism-based; details: in vivo, read-out: Vdss
Adenosine receptor A1 = Adenosine receptor A1 (Homo sapiens, UniProt P30542); experiment: Inhibition of human Adenosine A1 receptor
[10] = Elimination half life in human at 1600 mg/kg, po administered as single dose and measured upto 144 hrs; format: ADME, organism-based; details: in vivo, read-out: beta t1/2 (converted)
[11] = Selectivity ratio of antagonist activity at human FXR to inhibition of RORgamma (unknown origin)
[12] = Tmax in human at 60 […], po administered as single dose and measured upto 144 hrs; format: ADME, organism-based; details: in vivo
[13] = Elimination half life in Beagle dog at 1 mg/kg, iv administered as single dose and measured after 24 hrs; format: ADME, organism-based, Canis lupus familiaris; details: in vivo, read-out: beta t1/2 (converted)
[14] = target: T1, Nuclear receptor ROR-gamma (Homo sapiens, UniProt P51449); experiment: Inhibition of GAL4 DNA-binding domain fused RORgamma (unknown origin) transfected in CHO-K1 cells incubated for 2 days by luciferase assay; format: cell-based
T1 sequence (P51449 whole entry): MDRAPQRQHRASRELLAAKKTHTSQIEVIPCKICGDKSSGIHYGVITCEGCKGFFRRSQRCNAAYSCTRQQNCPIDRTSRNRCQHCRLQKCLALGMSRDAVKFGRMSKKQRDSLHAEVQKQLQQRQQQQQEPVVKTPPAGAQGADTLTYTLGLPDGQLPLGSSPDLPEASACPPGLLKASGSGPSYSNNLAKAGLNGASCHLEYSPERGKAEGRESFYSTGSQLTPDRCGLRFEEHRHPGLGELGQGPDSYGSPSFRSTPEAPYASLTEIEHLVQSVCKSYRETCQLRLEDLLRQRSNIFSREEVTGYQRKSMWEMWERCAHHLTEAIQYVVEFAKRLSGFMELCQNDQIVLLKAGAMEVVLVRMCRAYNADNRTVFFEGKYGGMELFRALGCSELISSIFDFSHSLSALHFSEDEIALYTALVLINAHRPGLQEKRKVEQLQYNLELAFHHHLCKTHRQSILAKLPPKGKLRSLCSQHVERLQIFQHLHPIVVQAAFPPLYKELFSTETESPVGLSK

[15] = Volume of distribution at steady state in cynomolgus monkey at 1 mg/kg, iv administered as single dose and measured after 24 hrs; format: ADME, organism-based, Macaca fascicularis; details: in vivo, read-out: Vdss
[16] = AUClast in human at 400 mg/kg, po administered as single dose and measured upto 144 hrs; format: ADME, organism-based; details: in vivo
[17] = MRT in Beagle dog at 3 mg/kg, po administered as single dose and measured after 24 hrs; format: ADME, organism-based, Canis lupus familiaris; details: in vivo
[18] = Tmax in human at 100 […], po administered as single dose and measured upto 144 hrs; format: ADME, organism-based; details: in vivo
[19] = target: Beta-3 adrenergic receptor (Homo sapiens, UniProt P13945); experiment: Inhibition of human adrenergic beta3 receptor
[20] = Selectivity ratio of agonist activity at human RARalpha to inhibition of RORgamma (unknown origin)
[21] = Selectivity ratio of agonist activity at human PPARalpha to inhibition of RORgamma (unknown origin)
[22] = Selectivity ratio of antagonist activity at human PR to inhibition of RORgamma (unknown origin)
[23] = AUClast in human at 600 mg/kg, po administered as single dose and measured upto 144 hrs; format: ADME, organism-based; details: in vivo
[24] = Selectivity ratio of antagonist activity at human RARalpha to inhibition of RORgamma (unknown origin)
Cytochrome P450 2D6 = Cytochrome P450 2D6 (Homo sapiens, UniProt P10635); experiment: Inhibition of CYP2D6 in human liver microsomes; format: ADME, Microsome
[25] = Cmax in human at 1000 […], po administered as single dose and measured upto 144 hrs; format: ADME, organism-based; details: in vivo
[26] = Toxicity in CHL cells assessed as chromosomal aberration at 30 to 50 ug/ml incubated for 24 hrs in absence of S9 fraction; format: cell-based, Cricetulus griseus; details: chinese hamster, dose 30-50 µg/ml
[27] = AUClast in human at 1000 mg/kg, po administered as single dose and measured upto 144 hrs; format: ADME, organism-based; details: in vivo
[28] = Selectivity ratio of antagonist activity at human RXRalpha to inhibition of RORgamma (unknown origin)
[29] = target: Prostaglandin G/H synthase 1 (Ovis aries, UniProt P05979); experiment: Inhibition of ovine cox-1
[30] = Selectivity ratio of antagonist activity at mouse LXRalpha to inhibition of RORgamma (unknown origin)
[31] = MRT in CD(SD) rat at 10 mg/kg, po administered as single dose and measured after 24 hrs; format: ADME, organism-based; details: in vivo
[32] = Elimination half life in human at 200 mg/kg, po administered as single dose and measured upto 144 hrs; format: ADME, organism-based; details: in vivo, read-out: beta t1/2 (converted)
[33] = Toxicity in Sprague-Dawley rat assessed as development-limiting toxicity at 30 to 300 mg/kg, po administered once daily and measured on day 1,14 and 27; format: organism-based; details: in vivo, 648 h, dose 30-300 mg/kg, time 27 day
Cytochrome P450 2C9 = Cytochrome P450 2C9 (Homo sapiens, UniProt P11712); experiment: Inhibition of CYP2C9 in human liver microsomes; format: ADME, Microsome
[34] = Selectivity ratio of agonist activity at mouse GR to inhibition of RORgamma (unknown origin)
[35] = Elimination half life in human at 60 mg/kg, po administered as single dose and measured upto 144 hrs; format: ADME, organism-based; details: in vivo, read-out: beta t1/2 (converted)
[36] = Cmax in human at 100 […], po administered as single dose and measured upto 144 hrs; format: ADME, organism-based; details: in vivo
[37] = AUClast in human at 1600 mg/kg, po administered as single dose and measured upto 144 hrs; format: ADME, organism-based; details: in vivo
[38] = Tmax in human at 200 […], po administered as single dose and measured upto 144 hrs; format: ADME, organism-based; details: in vivo

Chain of Cytochrome P450 2C9 (P11712 whole entry): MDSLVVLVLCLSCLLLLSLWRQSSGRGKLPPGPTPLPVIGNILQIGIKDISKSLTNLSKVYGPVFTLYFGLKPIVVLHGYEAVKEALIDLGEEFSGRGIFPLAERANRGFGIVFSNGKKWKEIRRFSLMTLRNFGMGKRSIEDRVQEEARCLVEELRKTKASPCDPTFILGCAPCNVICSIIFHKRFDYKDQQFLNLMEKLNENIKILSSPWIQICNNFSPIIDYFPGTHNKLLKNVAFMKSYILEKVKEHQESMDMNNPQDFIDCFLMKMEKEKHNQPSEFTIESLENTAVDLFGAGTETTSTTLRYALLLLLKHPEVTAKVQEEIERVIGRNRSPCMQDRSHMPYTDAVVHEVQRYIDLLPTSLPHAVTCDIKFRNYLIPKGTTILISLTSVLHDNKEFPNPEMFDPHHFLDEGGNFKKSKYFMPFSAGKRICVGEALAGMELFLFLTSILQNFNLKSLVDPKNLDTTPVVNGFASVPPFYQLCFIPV
Chain of Prostaglandin G/H synthase 1 (P05979 whole entry): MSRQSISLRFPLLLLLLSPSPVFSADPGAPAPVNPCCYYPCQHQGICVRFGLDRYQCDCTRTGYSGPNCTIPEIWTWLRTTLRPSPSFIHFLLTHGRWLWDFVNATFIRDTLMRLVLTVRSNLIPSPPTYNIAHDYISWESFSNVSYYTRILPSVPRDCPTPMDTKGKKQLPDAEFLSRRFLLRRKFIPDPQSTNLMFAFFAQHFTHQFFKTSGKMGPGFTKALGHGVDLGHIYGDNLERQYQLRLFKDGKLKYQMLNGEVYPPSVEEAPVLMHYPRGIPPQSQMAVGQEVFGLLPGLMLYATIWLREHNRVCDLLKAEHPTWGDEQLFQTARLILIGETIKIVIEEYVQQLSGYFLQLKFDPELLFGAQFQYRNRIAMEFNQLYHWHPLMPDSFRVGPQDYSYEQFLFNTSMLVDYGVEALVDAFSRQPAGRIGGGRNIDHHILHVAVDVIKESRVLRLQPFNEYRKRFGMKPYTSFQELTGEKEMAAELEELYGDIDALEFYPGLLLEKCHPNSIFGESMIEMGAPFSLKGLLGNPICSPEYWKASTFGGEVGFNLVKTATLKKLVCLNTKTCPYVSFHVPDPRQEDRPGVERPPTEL
Chain of Cytochrome P450 2D6 (P10635 whole entry): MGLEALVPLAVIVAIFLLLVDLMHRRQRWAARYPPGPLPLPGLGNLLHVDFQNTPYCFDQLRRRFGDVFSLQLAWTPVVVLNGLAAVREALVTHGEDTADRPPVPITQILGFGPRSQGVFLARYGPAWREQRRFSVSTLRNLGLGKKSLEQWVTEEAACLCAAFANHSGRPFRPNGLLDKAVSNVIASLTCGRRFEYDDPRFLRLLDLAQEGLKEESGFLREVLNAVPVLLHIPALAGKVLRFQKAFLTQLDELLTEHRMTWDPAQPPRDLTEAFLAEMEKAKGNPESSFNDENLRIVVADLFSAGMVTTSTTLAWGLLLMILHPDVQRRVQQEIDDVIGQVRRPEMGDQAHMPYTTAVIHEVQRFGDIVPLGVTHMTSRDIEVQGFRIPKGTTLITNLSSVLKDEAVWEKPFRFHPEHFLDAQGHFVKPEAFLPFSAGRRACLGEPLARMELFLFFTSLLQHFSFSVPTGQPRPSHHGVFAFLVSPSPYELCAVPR
Chain of Beta-3 adrenergic receptor (P13945 whole entry): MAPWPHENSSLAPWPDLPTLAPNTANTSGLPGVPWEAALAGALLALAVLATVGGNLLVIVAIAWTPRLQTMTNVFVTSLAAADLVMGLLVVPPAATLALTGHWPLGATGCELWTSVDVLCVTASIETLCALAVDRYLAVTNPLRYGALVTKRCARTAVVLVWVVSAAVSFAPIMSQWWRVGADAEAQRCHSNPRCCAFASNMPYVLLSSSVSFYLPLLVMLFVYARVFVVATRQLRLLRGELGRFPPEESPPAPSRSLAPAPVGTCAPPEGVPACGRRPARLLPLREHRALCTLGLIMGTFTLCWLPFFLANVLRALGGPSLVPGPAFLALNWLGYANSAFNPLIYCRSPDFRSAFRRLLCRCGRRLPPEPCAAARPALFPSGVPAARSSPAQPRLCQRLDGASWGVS
Chain of Adenosine receptor A1 (P30542 whole entry): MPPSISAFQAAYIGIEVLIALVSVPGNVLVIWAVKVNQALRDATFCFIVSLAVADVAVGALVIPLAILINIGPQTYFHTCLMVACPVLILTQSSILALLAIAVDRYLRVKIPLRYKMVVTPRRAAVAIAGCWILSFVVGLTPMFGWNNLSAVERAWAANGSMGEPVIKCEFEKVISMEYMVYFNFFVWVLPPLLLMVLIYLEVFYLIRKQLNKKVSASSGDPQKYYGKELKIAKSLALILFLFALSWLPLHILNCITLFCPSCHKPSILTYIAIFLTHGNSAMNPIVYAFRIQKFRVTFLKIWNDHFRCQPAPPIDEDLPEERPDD
Chain of Beta-1 adrenergic receptor (P08588 whole entry): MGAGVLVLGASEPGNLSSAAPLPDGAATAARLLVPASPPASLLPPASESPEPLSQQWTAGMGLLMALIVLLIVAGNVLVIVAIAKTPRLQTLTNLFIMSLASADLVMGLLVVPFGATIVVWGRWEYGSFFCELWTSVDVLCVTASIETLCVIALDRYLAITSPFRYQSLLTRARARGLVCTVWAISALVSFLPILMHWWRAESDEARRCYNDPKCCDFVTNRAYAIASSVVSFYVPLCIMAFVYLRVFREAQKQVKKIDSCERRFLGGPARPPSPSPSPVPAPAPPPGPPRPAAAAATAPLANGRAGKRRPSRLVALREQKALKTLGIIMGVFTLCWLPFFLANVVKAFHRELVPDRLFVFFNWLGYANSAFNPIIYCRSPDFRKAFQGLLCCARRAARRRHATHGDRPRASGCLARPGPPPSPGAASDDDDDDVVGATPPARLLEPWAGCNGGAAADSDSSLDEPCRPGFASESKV
Chain of D(1A) dopamine receptor (P21728 whole entry): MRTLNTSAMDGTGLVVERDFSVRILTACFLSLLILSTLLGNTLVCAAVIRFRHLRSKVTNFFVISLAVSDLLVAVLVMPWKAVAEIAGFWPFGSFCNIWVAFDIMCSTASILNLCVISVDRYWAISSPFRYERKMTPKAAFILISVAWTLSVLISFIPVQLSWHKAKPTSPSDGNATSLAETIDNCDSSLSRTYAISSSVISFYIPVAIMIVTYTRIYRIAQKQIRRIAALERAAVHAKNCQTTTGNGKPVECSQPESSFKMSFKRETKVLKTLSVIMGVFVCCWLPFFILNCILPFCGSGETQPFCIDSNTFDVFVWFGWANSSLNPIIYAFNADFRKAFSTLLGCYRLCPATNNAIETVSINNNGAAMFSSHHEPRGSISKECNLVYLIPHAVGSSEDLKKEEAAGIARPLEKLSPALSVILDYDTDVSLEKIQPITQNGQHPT
Chain of Cytochrome P450 2C8 (P10632 whole entry): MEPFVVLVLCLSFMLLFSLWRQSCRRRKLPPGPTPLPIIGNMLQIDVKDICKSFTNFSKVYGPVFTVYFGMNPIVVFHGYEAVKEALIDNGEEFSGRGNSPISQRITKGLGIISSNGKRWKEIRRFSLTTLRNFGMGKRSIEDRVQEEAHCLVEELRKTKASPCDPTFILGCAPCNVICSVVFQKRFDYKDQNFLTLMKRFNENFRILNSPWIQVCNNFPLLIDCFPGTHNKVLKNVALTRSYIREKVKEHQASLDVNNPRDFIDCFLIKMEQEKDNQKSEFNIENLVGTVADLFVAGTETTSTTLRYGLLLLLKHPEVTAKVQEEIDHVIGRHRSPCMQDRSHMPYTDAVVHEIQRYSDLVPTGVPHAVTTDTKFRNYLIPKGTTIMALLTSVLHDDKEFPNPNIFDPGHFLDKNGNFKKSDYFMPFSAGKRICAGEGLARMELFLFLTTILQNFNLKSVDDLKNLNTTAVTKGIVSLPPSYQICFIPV

SMILES: Cc1ccc(NC(=O)C[C@H](CCC(=O)O)c2noc([C@H]3C[C@@H](CC(C)(C)C)C3)c2C2CC2)c(Cl)c1
- IC50 (D(1A) dopamine receptor): 6.2 µM
- IC50 [1]: > 10 µM
- Cmax [2]: 26400 ng/mL
- Selectivity ratio [3]: > 100
- AUC(0-inf) [4]: 173 µM·h
- Activity [5]: Non-Toxic
- AUC(0-t) at 144 h [6]: 11 µg·h/mL
- IC50 (Cytochrome P450 2C8): 6.8 µM
- Vd [7]: 0.19 L/kg
- IC50 [8]: > 10 µM
- Vd [9]: 0.16 L/kg
- IC50 (Adenosine receptor A1): > 10 µM
- half-life [10]: 10.7 h
- Selectivity ratio [11]: > 100
- Tmax [12]: 4 h
- half-life [13]: 5.5 h
- EC50 [14]: 0.013 µM
- Vd [15]: 0.36 L/kg
- AUC(0-t) at 144 h [16]: 94.3 µg·h/mL
- MRT [17]: 6.6 h
- Tmax [18]: 3.03 h
- IC50 [19]: > 10 µM
- Selectivity ratio [20]: > 100
- Selectivity ratio [21]: > 100
- Selectivity ratio [22]: > 100
- AUC(0-t) at 144 h [23]: 140 µg·h/mL
- Selectivity ratio [24]: > 100
- IC50 (Cytochrome P450 2D6): > 10 µM
- Cmax [25]: 38100 ng/mL
- Activity [26]: Non-Toxic
- AUC(0-t) at 144 h [27]: 241 µg·h/mL
- Selectivity ratio [28]: > 100
- IC50 [29]: > 10 µM
- Selectivity ratio [30]: > 100
- MRT [31]: 5.6 h
- half-life [32]: 12.4 h
- Activity [33]: Non-Toxic
- IC50 (Cytochrome P450 2C9): > 10 µM
- Selectivity ratio [34]: > 100
- half-life [35]: 5.49 h
- Cmax [36]: 3810 ng/mL
- AUC(0-t) at 144 h [37]: 371 µg·h/mL
- Tmax [38]: 3.25 h
